US12616697B2, “Methods of treatment with myosin modulator” (MyoKardia, Inc., priority 2020, dated 2026)

How the values were obtained:
[1] = test system: Yucatan mini-pigs with a heterozygous MYH7 R403Q mutation; test: Chronic MYK-581 in mini-pig genetic model of non-obstructed HCM (cMR imaging, invasive hemodynamics, dobutamine challenge); format: in vivo; settings: corrected for plasma protein binding and potency differences MYK-581 vs mavacamten
Procedure: The mini-pigs were treated for at least 12 weeks and were evaluated as shown in Schematic 1 below. […] After ˜14 weeks of treatment, all pigs underwent in vivo cMR imaging for the assessment of LV function and geometry, as well as of myocardial composition via of Late Gadolinium Enhancement (LGE) and T1 mapping techniques including extracellular volume (ECV) assessments. In addition, a subset of animals (MYK: n=6, CTRL: n=5) also underwent terminal invasive hemodynamics assessments, including cardiac output (CO, via thermodilution), load-independent systolic/diastolic function (via LV pressure-volume relationships), and β-adrenergic (β-AR) cardiac reserve (via dobutamine at 5 ug/kg/min IV).
The mini-pig model can be obtained following the method disclosed in a presentation entitled “A Minipig Genetic Model of Hypertrophic Cardiomyopathy Uncovers the Pathophysiological Mechanisms of Disease Evolution”, by E. Green et al., at University of Iowa, Carver College of Medicine.

[2] = test system: participants with symptomatic oHCM; test: EXPLORER-HCM Phase 3 double blind, randomized, placebo controlled study; format: in vivo, human
Excerpt: A subset of participants consented to participate in a CMR substudy at selected sites. Randomization was stratified according to NYHA functional classification (II or III), current treatment with β-blocker (yes or no), planned type of ergometer used during the study (treadmill or exercise bicycle), and consent for the CMR substudy (yes or no).
1) Screening period (Day −35 to Day −1): Participants will undergo a variety of general, cardiopulmonary, laboratory, symptom, and PRO assessments over 1 to 2 days in order to assess eligibility. Key Screening tests include electrocardiogram (ECG); transthoracic echocardiography (TTE) conducted at rest, with Valsalva maneuver, and post-exercise; as well as cardiopulmonary exercise testing (CPET). The following screening assessments may be repeated, as long as within the 35-days screening window: blood tests, ECG, and/or TTE. Repeat assessments are allowed if central core labs require a repeat submission due to quality and in order to better assess inclusion/exclusion values. Participants who screen fail may be considered for rescreening based on the investigator's discretion, taking into consideration the reason(s) for screen fail. One attempt at rescreening will be allowed, and all procedures must be repeated.
2) Double-blind treatment period (Day 1 [randomization] to Week 30/end of treatment [EOT]): The double-blind treatment period will include a two-step dose titration scheme designed to achieve safe and effective dosing for each participant based on their own response parameters. […] Subsequently, assessments including ECG, PK (trough plasma concentrations), and TTE will be performed at each of 7 study visits, beginning at Week 4, and read by core laboratories. At Week 8 and Week 14, the dose may be increased, decreased, or remain unchanged based upon results of Week 6 and Week 12 assessments, respectively, and based primarily on measurements of provoked left ventricular outflow tract (LVOT) gradient and bounded by a target plasma concentration (PK) range and clinical tolerability (LVEF). At Week 8, the dose may be increased to a maximum daily dose of 10 mg (ie, increase from 5 mg QD to 10 mg QD), and at Week 14 to a maximum daily dose of 15 mg (ie, increase from 10 mg QD to 15 mg QD). Dose increases are designed to be step wise and are not allowed to skip doses (eg, from 5 mg to 15 mg).
At Week 30/EOT, participants will complete CPET and post-exercise TTE. For any participants permanently discontinuing treatment prior to Week 30, an early termination (ET) visit should be conducted as soon as possible, including CPET and post-exercise TTE. Participants with ET will also be encouraged to complete all remaining study visits and assessments, including the Week 30 visit.
3) Posttreatment follow-up period (Week 30/EOT to Week 38/end of study [EOS]): When double-blind treatment ends at Week 30, participants will be contacted by phone at Week 34 and return to the site at Week 38 for an EOS visit. At the EOS visit, specified assessments will be repeated. This posttreatment follow-up period applies only to participants who are receiving study drug after Week 22.
To maintain safety throughout the double-blind treatment period, a clinic visit will occur every 2 to 4 weeks, beginning at Week 4 for an initial evaluation of clinical tolerability and safety. Clinic visits will include but are not limited to clinical evaluation (symptoms, PRO evaluations, adverse event [AE]/serious adverse event [SAE] assessment), ECGs, PK sample, TTEs, and laboratory assessments. Results of TTE performed by study site sonographers at each scheduled visit following randomization should be kept blinded to the investigator and other study site personnel. An exception may occur if left ventricular ejection fraction (LVEF)≤30% is measured at the site, then the investigator will be immediately notified and study drug will be permanently discontinued as described within the protocol. […]

Structure (SMILES): CC(C)n1c(=O)cc(N[C@@H](C)c2ccccc2)[nH]c1=O [mavacamten, (S)-3-Isopropyl-6-((1-phenylethyl)amino)pyrimidine-2, 4(1H,3H)-dione]
- equivalent human plasma concentrations [1]: 50 to 250 ng/mL
- Response Type 1, n (%) ([2]; Type 1 - pVO2 ≥1.5 ml/kg/min and NYHA improved ≥1, mavacamten group (n = 123)): 41 (33.3) n (%)
- Response Type 2, n (%) ([2]; Type 2 - pVO2 ≥3.0 ml/kg/min and no worsening NYHA, mavacamten group (n = 123)): 29 (23.6) n (%)
- Met Composite Functional Response, either type: Mavacamten vs Placebo ([2]; difference, mavacamten (n = 123) vs placebo (n = 128)): 19.4%
- participants with temporary discontinuation associated with reduced ejection fraction ([2]; in vivo): 3
- patients who achieved a complete response (NYHA 1 and all LVOT gradients below 30 mmHg) ([2]; in vivo): 27%
- patients who achieved a post-exercise LVOT peak gradient below 30 mmHg ([2]; in vivo): 57%
- subjects with severe TEAEs, % ([2]; in vivo): 5.7%
- Rates of improvement by at least one NYHA class ([2]; patients not receiving β blocker(s)): 65%
- difference vs placebo in percent of patients that met the primary endpoint ([2]; patients not receiving β blocker(s) (n=29)): 52.6%
- Rates of improvement by at least one NYHA class ([2]; patients receiving β blocker(s)): 65%
- difference vs placebo in percent of patients that met the primary endpoint ([2]; patients receiving β blocker(s) (n=94)): 8.7%
- patients who achieved NYHA class I status ([2]; placebo 21%): 65%
- subjects who experienced SAEs, % ([2]; through week 30): 8.1%
- Absence of MR (mitral regurgitation), Mava vs Placebo Difference (95% CI) ([2]; vs placebo): 9.0 (3.7, 14.3) %
- VE/CO2 slope change from baseline ([2]; week 30, non-β blocker subgroup): −2.5
- mean change in pVO2 ([2]; week 30, those not using β blocker(s)): 2.2 mL/kg/min
- VE/CO2 slope change from baseline ([2]; week 30, β blocker subgroup): −2.5
- mean change in pVO2 ([2]; week 30, β blocker subgroup): 1.1 mL/kg/min
